Experimental data reported in patent US10738028B2, “Spiro three-membered ring, spiro five-membered ring peptide deformylase inhibitor and use thereof in antibacteria and anti-tumor” (priority 2016, dated 2020).
Values after ≈ are worked out from the molar mass of the structure shown.

Experiments:
Format in all cases: cell-based
[1] = tested on: HCT-116 colorectal cancer cell line; assay: CCK-8 proliferation inhibition; conditions: Homo sapiens, HCT-116, 72 h, concentration of 30 μM; 72 hours; CCK-8; read-out: HCT116 inhibition rate/%
How it was run: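 Cells were plated overnight at 2000 cells/well, then compound in culture medium was added at a range of final concentrations. After 72 hours in a CO2 incubator, medium was replaced with 1:10 CCK-8 solution for the read-out.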

[2] = tested on: methicillin-resistant Staphylococcus epidermidis (MRSE); assay: MIC, two-fold agar dilution (CLSI), clinical isolates
Description: (§1) 1. The invention adopts the two-fold agar dilution method recommended by the operating procedure of antimicrobial susceptibility testing set by American Clinical and Laboratory Standards Institute (CLSI) to determine the Minimum Inhibitory Concentration (MIC) of the test samples against the tested strains.

[3] = tested on: methicillin-sensitive Staphylococcus aureus (MSSA); assay: as above
Description: as §1

[4] = tested on: Escherichia coli (including ESBLs, non-ESBLs); assay: as above
Description: as §1

[5] = tested on: Enterococcus faecium (EFM); assay: as above
Description: as §1

[6] = tested on: methicillin-sensitive Staphylococcus epidermidis (MSSE); assay: as above
Description: as §1

[7] = tested on: Moraxella catarrhalis (BCA); assay: as above
Description: as §1

[8] = tested on: Enterococcus faecalis (EFA); assay: as above
Description: as §1

[9] = tested on: methicillin-resistant Staphylococcus aureus (MRSA); assay: as above
Description: as §1

[10] = tested on: Streptococcus pneoumoniae (SPN); assay: as above
Description: as §1

O=CN(O)C[C@@H](CC1CCCC1)C(=O)N1CC2(CC2)C[C@H]1C(=O)Nc1ccno1 [Example 37, (S)-5-((R)-3-cyclopentyl-2-((N-hydroxyformamido)methyl)propionyl)-N-(isoxazol-5-yl)-5-azaspiro[2.4]heptane-6-carboxamide]
inhibition at 30 µM [1]: 16%
MIC (anti-bacterial activity) ([2]; strain MRSE 15-1): 0.5 µg/mL (≈ 1.24 µM)
MIC (anti-bacterial activity) ([2]; strain MRSE 15-2): 1 µg/mL (≈ 2.47 µM)
MIC (anti-bacterial activity) ([2]; strain MRSE 15-3): 1 µg/mL (≈ 2.47 µM)
MIC (anti-bacterial activity) ([2]; strain MRSE 15-7): 1 µg/mL (≈ 2.47 µM)
MIC (anti-bacterial activity) ([3]; strain MSSA 15-3): 1 µg/mL (≈ 2.47 µM)
MIC (anti-bacterial activity) ([3]; strain MSSA 15-4): 1 µg/mL (≈ 2.47 µM)
MIC (anti-bacterial activity) ([3]; strain MSSA 15-5): 0.5 µg/mL (≈ 1.24 µM)
MIC (anti-bacterial activity) ([3]; strain MSSA 15-6): 1 µg/mL (≈ 2.47 µM)
MIC (anti-bacterial activity) ([4]; strain ECO+ 15-1): 32 µg/mL (≈ 79.1 µM)
MIC (anti-bacterial activity) ([4]; strain ECO+ 15-2): 32 µg/mL (≈ 79.1 µM)
MIC (anti-bacterial activity) ([4]; strain ECO+ 15-3): 32 µg/mL (≈ 79.1 µM)
MIC (anti-bacterial activity) ([4]; strain ECO+ 15-4): 32 µg/mL (≈ 79.1 µM)
MIC (anti-bacterial activity) ([4]; strain ECO− 15-1): 32 µg/mL (≈ 79.1 µM)
MIC (anti-bacterial activity) ([4]; strain ECO− 15-2): 32 µg/mL (≈ 79.1 µM)
MIC (anti-bacterial activity) ([4]; strain ECO− 15-3): 32 µg/mL (≈ 79.1 µM)
MIC (anti-bacterial activity) ([4]; strain ECO− 15-4): 32 µg/mL (≈ 79.1 µM)
MIC (anti-bacterial activity) ([5]; strain EFM 15-1): 2 µg/mL (≈ 4.94 µM)
MIC (anti-bacterial activity) ([5]; strain EFM 15-2): 2 µg/mL (≈ 4.94 µM)
MIC (anti-bacterial activity) ([5]; strain EFM 15-3): 2 µg/mL (≈ 4.94 µM)
MIC (anti-bacterial activity) ([5]; strain EFM 15-4): 2 µg/mL (≈ 4.94 µM)
MIC (anti-bacterial activity) ([5]; strain EFM 15-5): 1 µg/mL (≈ 2.47 µM)
MIC (anti-bacterial activity) ([5]; strain EFM 15-6): 2 µg/mL (≈ 4.94 µM)
MIC (anti-bacterial activity) ([6]; strain MSSE 15-3): 1 µg/mL (≈ 2.47 µM)
MIC (anti-bacterial activity) ([6]; strain MSSE 15-4): 1 µg/mL (≈ 2.47 µM)
MIC (anti-bacterial activity) ([6]; strain MSSE 15-5): 1 µg/mL (≈ 2.47 µM)
MIC (anti-bacterial activity) ([6]; strain MSSE 15-6): 1 µg/mL (≈ 2.47 µM)
Anti-bacterial activity (MIC), strain BCA 14-10 ([7]; clinical isolate BCA 14-10): 3 µg/mL
MIC (anti-bacterial activity) ([7]; strain BCA 14-1): 2 µg/mL (≈ 4.94 µM)
MIC (anti-bacterial activity) ([7]; strain BCA 14-4): 2 µg/mL (≈ 4.94 µM)
MIC (anti-bacterial activity) ([7]; strain BCA 14-5): 2 µg/mL (≈ 4.94 µM)
MIC (anti-bacterial activity) ([7]; strain BCA 14-6): 2 µg/mL (≈ 4.94 µM)
MIC (anti-bacterial activity) ([7]; strain BCA 14-7): 3 µg/mL (≈ 7.42 µM)
MIC (anti-bacterial activity) ([7]; strain BCA 14-8): 2 µg/mL (≈ 4.94 µM)
MIC (anti-bacterial activity) ([8]; strain EFA 15-1): 4 µg/mL (≈ 9.89 µM)
MIC (anti-bacterial activity) ([8]; strain EFA 15-2): 4 µg/mL (≈ 9.89 µM)
MIC (anti-bacterial activity) ([8]; strain EFA 15-3): 4 µg/mL (≈ 9.89 µM)
MIC (anti-bacterial activity) ([8]; strain EFA 15-4): 4 µg/mL (≈ 9.89 µM)
MIC (anti-bacterial activity) ([8]; strain EFA 15-5): 4 µg/mL (≈ 9.89 µM)
MIC (anti-bacterial activity) ([8]; strain EFA 15-6): 4 µg/mL (≈ 9.89 µM)
MIC (anti-bacterial activity) ([8]; strain EFA 15-9): 4 µg/mL (≈ 9.89 µM)
MIC (anti-bacterial activity) ([9]; strain MRSA 15-1): 0.5 µg/mL (≈ 1.24 µM)
MIC (anti-bacterial activity) ([9]; strain MRSA 15-2): 1 µg/mL (≈ 2.47 µM)
MIC (anti-bacterial activity) ([9]; strain MRSA 15-3): 0.5 µg/mL (≈ 1.24 µM)
MIC (anti-bacterial activity) ([9]; strain MRSA 15-4): 0.2 µg/mL (≈ 0.494 µM)
MIC (anti-bacterial activity) ([10]; strain SPN 16-2): 0.5 µg/mL (≈ 1.24 µM)
MIC (anti-bacterial activity) ([10]; strain SPN 16-4): 4 µg/mL (≈ 9.89 µM)
